Measurements: patent US20090143279A1 (priority 2007, published 2009)
Read-outs that look alike come from different tables or passages of the source.

How the values were obtained:
cytochrome c = format: cell-based, mouse
mtOXPHOS transcripts = format: cell-based, mouse
reactive oxygen species = format: cell-based, mouse
nuOXPHOS transcripts = format: cell-based, mouse
OXPHOS gene expression = format: cell-based, mouse
[1] = test system: cellular dehydrogenase activity
[2] = test system: mitochondrial membrane potential; format: cell-based, mouse
[3] = composite Z-score vs DMSO, Conc 20 μM
[4] = normalized composite Z-score vs mock-treated (DMSO) wells, Conc 20 μM
[5] = Conc 20 μM, normalized score vs mock-treated (DMSO) wells
[6] = composite Z-score vs mock-treated (DMSO) wells, Conc 20 μM
[7] = composite Z-score vs mock-treated (DMSO) wells, concentration of each compound in μM
[8] = 20 μM, composite Z-score vs DMSO

Compound: COc1ccc(-c2coc3c(O)c(OC)ccc3c2=O)cc1 [retusin 7-methyl ether]
- cyt c (cytochrome c; [3]): 0.412
- mitoOX (mtOXPHOS transcripts; [3]): 0.631
- ROS (reactive oxygen species; [3]): 0.088
- Viability (C2C12 myotubes; [3]): −0.245
- nucOX (nuOXPHOS transcripts; [3]): 0.765
- GE-HTS (OXPHOS gene expression; [3]): 0.788
- MTT [1, 3]: −0.627
- ΔΨm [2, 3]: −0.603

Compound: COc1ccc(-c2cc(=O)c3c(O)cc(O)cc3o2)cc1O [diosmetin]
- cyt c (cytochrome c; [4]): −0.666
- mitoOX (mtOXPHOS transcripts; [4]): −0.134
- ROS (reactive oxygen species; [4]): −0.014
- Viability (C2C12 myotubes; [4]): 0.174
- nucOX (nuOXPHOS transcripts; [4]): −1.158
- GE-HTS (OXPHOS gene expression; [4]): −0.892
- MTT [1, 4]: −1.922
- ΔΨm [2, 4]: −2.701

Compound: COC(=O)C[C@H]1C(C)(C)C2(O)OC34CC2C(=O)[C@]1(C)C3CC[C@]1(C)C4=CC(=O)O[C@H]1c1ccoc1 (stereo partly drawn) [8beta-hydroxycarapin, 3,8-hemiacetal]
- cyt c (composite Z-score) (cytochrome c; [5]): 0.436
- mitoOX (composite Z-score) (mtOXPHOS transcripts; [5]): 0.789
- ROS (composite Z-score) (reactive oxygen species; [5]): 1.075
- Viability (composite Z-score) (C2C12 myotubes; [5]): 0.561
- nucOX (composite Z-score) (nuOXPHOS transcripts; [5]): 0.472
- GE-HTS (composite Z-score) (OXPHOS gene expression; [5]): 0.600
- MTT (composite Z-score) [1, 5]: 0.204
- ΔΨm (composite Z-score) [2, 5]: −0.251

Compound: N[C@H]1C(O)O[C@H](CO)[C@H](O)[C@@H]1O[C@@H]1O[C@H](C(=O)O)[C@@H](O)[C@H](O)[C@H]1O (stereo partly drawn) [chondrosine]
- cyt c (cytochrome c; [3]): 0.040
- mitoOX (mtOXPHOS transcripts; [3]): −0.476
- ROS (reactive oxygen species; [3]): 0.741
- Viability (C2C12 myotubes; [3]): −0.800
- nucOX (nuOXPHOS transcripts; [3]): −0.782
- GE-HTS (OXPHOS gene expression; [3]): −0.743
- MTT [1, 3]: −1.759
- ΔΨm [2, 3]: −1.001

Compound: C=C(C)[C@H]1COc2cc3oc(=O)ccc3cc2O1 [obliquin]
- cyt c (cytochrome c; [6]): −1.172
- mitoOX (mtOXPHOS transcripts; [6]): 0.105
- ROS (reactive oxygen species; [6]): 0.977
- Viability (C2C12 myotubes; [6]): 0.539
- nucOX (nuOXPHOS transcripts; [6]): −0.459
- GE-HTS (OXPHOS gene expression; [6]): −0.313
- MTT [1, 6]: −0.268
- ΔΨm [2, 6]: 0.088

Compound: C=Cc1c(C)c2cc3nc(c4c5[n-]c(cc6nc(cc1[n-]2)C(C)=C6CC)c(C)c5C(=O)[C@@H]4C(=O)OC)[C@@H](CCC(=O)O)[C@@H]3C.[Mg+2] [chlorophyllide]
- cyt c (cytochrome c; [7]): −1.157
- mitoOX (mtOXPHOS transcripts; [7]): 0.224
- ROS (reactive oxygen species; [7]): 1.042
- Viability (C2C12 myotubes; [7]): −0.178
- nucOX (nuOXPHOS transcripts; [7]): 0.303
- GE-HTS (OXPHOS gene expression; [7]): 0.282
- MTT [1, 7]: 0.307
- ΔΨm [2, 7]: −0.783

Compound: CC[C@@H](C(=O)[C@@H](C)[C@@H](O)[C@H](C)[C@@H]1O[C@@H]([C@@H](CC)C(=O)O)CC[C@@H]1C)[C@H]1O[C@]2(C=C[C@@H](O)[C@]3(CC[C@@](C)([C@H]4CC[C@](O)(CC)[C@H](C)O4)O3)O2)[C@H](C)C[C@@H]1C [salinomycin, reference compound]
- cyt c (cytochrome c; [8]): −0.566
- mitoOX (mtOXPHOS transcripts; [8]): −3.359
- ROS (reactive oxygen species; [8]): −3.111
- Viability (C2C12 myotubes; [8]): −0.247
- nucOX (nuOXPHOS transcripts; [8]): −0.345
- GE-HTS (OXPHOS gene expression; [8]): −1.400
- MTT [1, 8]: −2.918
- ΔΨm [2, 8]: 2.976

Compound: CO/N=C(\C(=O)N[C@@H]1C(=O)N2C(C(=O)O)=C(CSc3nc(=O)c(=O)[nH]n3C)CS[C@H]12)c1csc(N)n1 [ceftriaxone]
- cyt c (cytochrome c): 0.481
- mitoOX (mtOXPHOS transcripts): −0.382
- ROS (reactive oxygen species): −0.002
- Viability (C2C12 myotubes): −0.792
- nucOX (nuOXPHOS transcripts): −0.439
- GE-HTS (OXPHOS gene expression): −0.433
- MTT [1]: −1.040
- ΔΨm [2]: −0.461

Compound: CC(C)(O)[C@H]1CC[C@]2(C)[C@H]3CC[C@@H]4[C@@]5(C)CCCC(C)(C)[C@@H]5[C@@H](O)C[C@@]4(C)[C@]3(C)CC[C@@H]12 [zeorin]
- cyt c (cytochrome c; [4]): 0.088
- mitoOX (mtOXPHOS transcripts; [4]): 0.571
- ROS (reactive oxygen species; [4]): 0.166
- Viability (C2C12 myotubes; [4]): 0.495
- nucOX (nuOXPHOS transcripts; [4]): 0.278
- GE-HTS (OXPHOS gene expression; [4]): 0.381
- MTT [1, 4]: −0.387
- ΔΨm [2, 4]: −0.941

Compound: COc1ccc2c(c1OC)C(=O)O[C@@H]2[C@H]1c2cc3c(cc2CCN1C)OCO3 [1s,9r-hydrastine]
- cyt c (cytochrome c; [3]): 0.359
- mitoOX (mtOXPHOS transcripts; [3]): −0.341
- ROS (reactive oxygen species; [3]): −0.029
- Viability (C2C12 myotubes; [3]): 0.650
- nucOX (nuOXPHOS transcripts; [3]): −0.041
- GE-HTS (OXPHOS gene expression; [3]): −0.152
- MTT [1, 3]: −0.539
- ΔΨm [2]: −0.849

Compound: C[C@]12CCC(=O)C=C1CCc1ccc(O)cc12
- cyt c (cytochrome c; [6]): −0.516
- mitoOX (mtOXPHOS transcripts; [6]): 0.846
- ROS (reactive oxygen species; [6]): 0.676
- Viability (C2C12 myotubes; [6]): −0.592
- nucOX (nuOXPHOS transcripts; [6]): −0.281
- GE-HTS (OXPHOS gene expression; [6]): 0.075
- MTT [1, 6]: −0.984
- ΔΨm [2, 6]: −0.484

Compound: CCOC(=O)c1c(C)cc(O)c(C=O)c1O [haematommic acid, ethyl ester]
- cyt c (cytochrome c; [6]): −0.104
- mitoOX (mtOXPHOS transcripts; [6]): 0.537
- ROS (reactive oxygen species; [6]): 0.478
- Viability (C2C12 myotubes; [6]): −0.557
- nucOX (nuOXPHOS transcripts; [6]): 0.387
- GE-HTS (OXPHOS gene expression; [6]): 0.450
- MTT [1, 6]: −0.761
- ΔΨm [2, 6]: −0.120
